# Reference: patent US10335417B2, “Thiazideamide derivative and use thereof” (Institute of Pharmacology and Toxicology Academy of …, priority 2015, dated 2019)
# Experiments:
# [1] = tested on: BCAO-LBP mice (incomplete global cerebral ischemia); test: mouse BCAO-LBP model of incomplete global cerebral ischemia: cerebral MDA content and neurological function score; assay type: in vivo, Kunmin mice; conditions: for Neurologic deficit score / MDA content: 30 mg/kg i.g. once/d for 3 d, x ± SEM; for Neurologic deficit score: behaviour within 6 h after ligation, model group 3.92, sham 0.00; for neurologic deficit score decreased compared to the group administered with Compound 6: 30 mg/kg i.g., BCAO-LBP mice; for MDA content: whole cerebrum, model group 40.94, sham 33.15
# From the text: In the Example, Kunmin mice were used as experimental subjects, intragastric (i.g.) administration was used, mouse BCAO-LBP (bilateral carotid artery occlusion with low blood pressure) model was used, and by determining neurological function score and the cerebral malondialdehyde (MDA) content in mice, the compounds were investigated for their protective effects on incomplete global cerebral ischemia in mice when administered prophylactically.
# 2.1.2 Preparation of a drug for intragastric administration: the compound was prepared to a 1.5 mg/ml solution using 0.7% CMC-Na solution.
# 28 mice, which had adapted to the laboratory environment for 1 week, were evenly grouped depending on body weight. The mice were intragastrically administered with 0.7% CMC-Na or one of the compounds, once/d, for 3 d. The groups were as followed:
# Administration group: 12 mice, intragastrically administered at a dose of 0.2 ml/10 g, i.e., the dose of the compound was 30 mg/kg.
# 2.3.1 Mouse bilateral carotid artery ligation: 1 h after the last administration, the mice were subjected to orbital bloodletting to reduce blood pressure (which was about 30% of the total blood volume of the mice), and then fixed in supine position on the operating table, and cut in the middle of neck. Carotid artery was subjected to blunt dissection, and 2 lines were used in ligation for each side. The time counting started after the ligation with the third line, the carotid artery was cut off between the two lines, and the incision was sewn up. In the Sham-operated group, the carotid artery was only separated without ligation. After the operation, the mice were unfixed quickly, and the mice were observed and recorded for the behaviors within 6 h (scoring depending on the following table using blind method) and the death time. The brains were taken quickly after the mice died, the cerebellums were removed, and the MDA content in the whole cerebrum was determined by thiobarbituric acid (TBA).
# The cerebra of mice were taken and weighed, and were prepared into 15% brain homogenate using N.S. 1.2 ml brain homogenate was placed in a 37° C. water bath for 1 h (shaking once every 10 min) and then taken out. 20% trichloroacetic acid 0.6 ml was added, and the mixture was mixed well, and was on standing for 10 min. After centrifugation at 2000 rpm for 10 min, to 1.2 ml supernatant, 0.67% TBA 0.6 ml was added. The mixture was placed in a boiling water bath for 10 min, and was taken out for cooling, and the OD value at a wavelength of 532 nm was determined.
# The experimental data was expressed as x±SEM; SPSS 13.0 statistic software was used. Homogeneity or heterogeneity of variance was determined by one-factor analysis of variance. In the case of homogeneity of variance, LSD test was used; in the case of heterogeneity of variance, Dunnett's T3 test was used. Significant difference among different groups was compared, and P<0.05 indicated statistical significance.
# [2] = tested on: chick embryo dorsal root ganglion; test: in vitro serum-free culture model of chick embryonic dorsal root ganglion: neurite growth score with NGF; assay type: cell-based; conditions: for Average score (growth of neurites of chick embryo dorsal root ganglion): 48 h, score 0-3, average of five ganglions, control 0.33
# Method: The neurotrophic activity of the compounds according to the invention can be embodied in multiple in vitro biological models, such as in vitro serum-free culture model of chick embryonic dorsal root ganglion.
# Experimental method: in a sterile environment, chick embryo, which had been incubated for 8 d, had the spinal and bilateral ganglion exposed under anatomical lens. Dorsal root ganglions were picked one by one using sharp forceps, and seeded in culture bottles spread with rat tail collagen, at a density of 5-6 ganglions per bottle, and two bottles for each dose. After attachment culture in a 37° C., 5% CO2 incubator for 1 h, serum-free medium DMEM containing nerve growth factor (NGF) (0.15 ng/mL), and the compound according to the invention were added. In the control group, only the medium and the same dose of NGF were added. After culture in the incubator for 48 h, the growth of neurite around dorsal root ganglion was observed under inverted phase contrast microscope, which was scored depending on the length and density of neurite.
# Evaluation criteria: 0: no neurite; 1: rare long neurite; 2: relatively long or dense neurite; 3: long and dense neurite.
# [3] = in vitro; conditions: dog, MDCK-MDR1
# From the text: (§1) MDCK-MDR1 cells were monolayer cells which highly express P-gp transporter after transfection of MDCK (Madin-Darby canine kidney epithelial cell) with MDR1 gene. Due to its density and high expression of efflux protein, the monolayer has similarity compared to blood-brain barrier (BBB) structure and now can be used as one of models for evaluating the ability of passing through BBB. In the invention, MDCK-MDR1 cells were used to study the membrane permeability of the compounds according to the invention, and to primarily evaluate its ability of passing through BBB.
# (§2) The frozen MDCK-MDR1 cells were quickly thawed in a 37° C. water bath. To the resuscitated cells, DMEM medium containing 10% FBS was added, and the cells were cultured in an incubator at 37° C., 5% CO2, and a relative humidity of 90%. The medium was changed every other day. After fusion of the cells growing for 1-2 days, the cells were digested with 0.25% trypsin-EDTA (0.2%) mixed digestion solution at 37° C., and were sub-cultured at a certain ratio. The cells for use in experiment were those passaged for 40-60 generations.
# (§3) When the cell fusion degree reached 80%, the cells were digested and then suspended in complete medium, and seeded to Millicell plate at 1×10^6 cells·mL^−1. The medium was changed every other day, and 1 week later, the medium was changed every day. After culturing for 5 days, the resistance value reached a constant value (>200 Ω·cm^2), and the cells could be used in the transport experiment.
# (§4) After washing with 37° C. HBSS twice, the cells were incubated in a 37° C. culture incubator, wherein Rho-123 was added to the upper wells, and HBSS was added to the bottom wells. The incubation was carried out in a constant temperature shaker, and the solutions from the bottom wells were collected at each time point (0 min, 30 min, 90 min, 120 min), and stored at −20° C. for further use. The amount of Rho-123 permeated to the bottom well was determined by fluorospectrophotometer, wherein the emission wavelength was […], and the excitation wavelength was 530 nm.
# (§5) The permeability from cavity-surface to basal surface: drug-containing HBSS 0.35 mL was add to Apical (AP), and blank HBSS 1.2 mL was added to Basolateral (BL). The Millicell was placed at 37° C. in a shaker under shaking at 50 r·min^−1, 50 μL sample was collected from the bottom well at 0, 30, 90, 120 min, respectively, and the same volume of blank HBSS was supplemented. 3 wells were set for each concentration, and to the sample, an internal standard solution (50 μL) and ethyl acetate (350 μL) were added precisely. The mixture was mixed homogeneously under shaking, and centrifuged at 12000 rmp for 5 min. The supernatant (300 μL) was volatilized to dryness, and re-dissolved in 50 μL acetonitrile. The 10 μL resultant solution was used for determination.
# (§6) The permeability from basal surface to cavity surface: the drug is added to Basolateral (BL), and blank HBSS was added to Apical (AP), and the other steps were the same as those of the experiment for determining the permeability from cavity-surface to basal surface.
# (§7) The apparent permeability coefficient (Papp) of a drug reflects the ability of the drug to pass through cell monolayer and the drug absorption rate and extent. It can be calculated in accordance with the following equation: […]
# (§8) wherein, Q represents the amount of drug permeated in the t period, A represents cell surface area, and represents the area (0.6 cm^2) of supporting film in this model, and C0 represents an initial concentration. The unit of Papp is expressed as cm·s^−1.
# (§9) By measurement using LC/MS, the concentration of each sample was quantitated using its standard curve (50 nM-10000 nM).
# [4] = tested on: MDCK-MDR1 cells; test: in vitro; conditions: dog, MDCK-MDR1, 120 min
# From the text: as §1, §2, §3, §4, §5, §6, §7, §8, §9
# [5] = compound 100 pM + NGF 0.15 ng/mL
SMILES,Neurologic deficit score [1],neurologic deficit score decreased compared to the group administered with Compound 6 [1] [%],MDA content [1] [nmol/g],Average score (growth of neurites of chick embryo dorsal root ganglion) ([2]; compound 1 pM + NGF 0.15 ng/mL),"Average score (growth of neurites of chick embryo dorsal root ganglion) [2, 5]",neurotrophic activity increased compared to Compound 6 ([2]; dose 1 pM) [%],neurotrophic activity increased compared to Compound 6 ([2]; dose 100 pM) [%],Papp at 120 min [3] [×10⁻⁶ cm/s],Papp value increased compared to Compound 6 [4]
"CCc1ccc(S(=O)(=O)N2CCSC[C@H]2C(=O)NC(CC(C)C)C(=O)OC(C)C)cc1 (stereo in doubt) [Compound 28, (3R)-4-[(4-ethylbenzenesulfonyl)]tetrahydro-1,4-thiazin-3-carbonyl-L-leucine isopropyl ester]",1.87 ± 0.31,~10,30.90 ± 1.65,2.00,2.96,19,16,45.8,above 7%
"CCOC(=O)[C@@H](NC(=O)[C@@H]1CSCCN1S(=O)(=O)c1ccc(C)cc1)C(C)CC (stereo partly drawn) [Compound 7, (2S,3R)-ethyl-3-methyl-2((R)-(4-methylphenyl)sulfonyltetrahydro-1,4-thiazin-3-aminoformyl)valerate]",,,,1.46,1.95,,,49.8,above 7%
"Cc1ccc(S(=O)(=O)N2CCSC[C@H]2C(=O)N[C@@H](Cc2ccccc2)C(=O)OC(C)C)cc1 [Compound 23, (S)-isopropyl-3-phenyl-2((R)-(4-methylphenyl)sulfonyltetrahydro-1,4-thiazin-3-aminoformyl)propionate]",1.81 ± 0.26,~13,31.87 ± 0.95,2.12,3.21,,,44.2,above 7%
